The test system of experiment [1] is COLO205 colon adenocarcinoma cells (B-Raf V600E mutation). Briefly: COLO205 cell growth inhibition (ATPlite). Format: cell-based. As to conditions: Homo sapiens, COLO 205, 72 h, 3 days. A digest of the protocol: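 Cells treated for 3 days at 37 °C, 5% CO2 with an 8-point 1:3 dilution series, top final concentration 10 μM, DMSO control. ATPlite luminescence used as a measure of cell number; IC50 from reading versus concentration.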
(In general: Cellular ATP, detected with luciferase, serves as a proxy for viable cell number.)

The target of experiment [2] is B-Raf V600E (Homo sapiens (Human), UniProt P15056, V600E). Briefly: B-Raf V600E kinase biochemical activity assay (AlphaScreen, biotin-MEK1 substrate). To be noted: 100 μM ATP. An outline of the steps:
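IC50 was derived from AlphaScreen signal (anti-phospho-MEK1/2 antibody with streptavidin donor and Protein A acceptor beads, 3 h) across 8 compound concentrations. The kinase step ran 45 min at room temperature: 0.1 ng B-Raf V600E, 100 nM biotin-MEK1, 100 μM final ATP, pH 7.0 HEPES with MgCl2/MnCl2.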
In general terms: Alpha assays give light when donor and acceptor beads are brought close together.

Here are results for 10 compounds from patent publication US20230277534A1 (Plexxikon Inc., priority 2011, published 2023).

As a reminder, the IC50 is the midpoint of a concentration-inhibition curve.

B-Raf V600E, sequence (P15056 whole entry V600E): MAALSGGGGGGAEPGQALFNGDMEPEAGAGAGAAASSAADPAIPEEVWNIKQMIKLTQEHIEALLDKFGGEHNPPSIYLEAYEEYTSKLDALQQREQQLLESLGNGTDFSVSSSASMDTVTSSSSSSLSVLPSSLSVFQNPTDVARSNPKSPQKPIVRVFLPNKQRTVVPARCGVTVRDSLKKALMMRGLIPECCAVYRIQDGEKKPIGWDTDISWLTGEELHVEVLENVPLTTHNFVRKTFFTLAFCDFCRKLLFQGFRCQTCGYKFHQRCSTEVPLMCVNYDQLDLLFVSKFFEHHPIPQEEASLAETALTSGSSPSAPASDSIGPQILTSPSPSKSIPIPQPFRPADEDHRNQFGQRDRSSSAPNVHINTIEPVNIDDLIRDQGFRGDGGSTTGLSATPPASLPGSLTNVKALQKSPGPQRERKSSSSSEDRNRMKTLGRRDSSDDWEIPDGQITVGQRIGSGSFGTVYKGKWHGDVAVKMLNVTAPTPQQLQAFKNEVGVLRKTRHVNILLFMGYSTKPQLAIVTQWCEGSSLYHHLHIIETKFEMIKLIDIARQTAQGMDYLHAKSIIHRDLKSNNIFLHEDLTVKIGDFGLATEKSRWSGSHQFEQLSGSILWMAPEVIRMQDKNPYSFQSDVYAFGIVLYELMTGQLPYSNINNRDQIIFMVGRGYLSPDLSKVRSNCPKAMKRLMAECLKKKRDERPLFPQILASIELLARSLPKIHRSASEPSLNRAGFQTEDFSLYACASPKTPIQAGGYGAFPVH

Regarding `CCN(C)S(=O)(=O)Nc1ccc(F)c(C(=O)c2c[nH]c3ncc(-c4cnc(N5CCN(C)CC5)nc4)cc23)c1F` [Compound P-0263, 3-[3-[[ethyl(methyl)sulfamoyl]amino]-2,6-difluoro-benzoyl]-5-[2-(4-methylpiperazin-1-yl)pyrimidin-5-yl]-1H-pyrrolo[2,3-b]pyridine], the values for the IC50 in experiment [1] and in experiment [2] were below 1 µM and below 0.1 µM, respectively.

For `CCN(C)S(=O)(=O)Nc1ccc(F)c(C(=O)c2c[nH]c3ncc(-c4cnc(N5CCNCC5)nc4)cc23)c1F` [Compound P-0268, 3-[3-[[ethyl(methyl)sulfamoyl]amino]-2,6-difluoro-benzoyl]-5-(2-piperazin-1-ylpyrimidin-5-yl)-1H-pyrrolo[2,3-b]pyridine], the results for the IC50 in experiment [1] and in experiment [2] were below 1 µM and below 0.1 µM, respectively.

For the compound `O=C(c1c(F)ccc(NS(=O)(=O)N2CCCC2)c1F)c1c[nH]c2ncc(-c3cnc(N4CCC4)nc3)cc12` [Compound P-0269, N-[3-[5-[2-(azetidin-1-yl)pyrimidin-5-yl]-1H-pyrrolo[2,3-b]pyridine-3-carbonyl]-2,4-difluoro-phenyl]pyrrolidine-1-sulfonamide], the IC50 in experiment [1] is below 1 µM; in experiment [2], below 0.1 µM.

For the compound `C[C@@H]1CCN(S(=O)(=O)Nc2cccc(C(=O)c3c[nH]c4ncc(-c5cnc(C6CC6)nc5)cc34)c2F)C1` [Compound P-0271, (3R)—N-[3-[5-(2-cyclopropylpyrimidin-5-yl)-1H-pyrrolo[2,3-b]pyridine-3-carbonyl]-2-fluoro-phenyl]-3-methyl-pyrrolidine-1-sulfonamide], the IC50 in experiment [1] was below 1 µM; in experiment [2], below 0.1 µM.

With `O=C(c1cccc(NS(=O)(=O)N2CCCC2)c1F)c1c[nH]c2ncc(C3CC3)cc12` [Compound P-0274, N-[3-(5-cyclopropyl-1H-pyrrolo[2,3-b]pyridine-3-carbonyl)-2-fluoro-phenyl]pyrrolidine-1-sulfonamide], the IC50 was above 1 µM in experiment [1] and below 0.1 µM in experiment [2].

As to `CCN(C)S(=O)(=O)Nc1ccc(F)c(C(=O)c2c[nH]c3ncc(-c4cnc(N5CCC(O)CC5)nc4)cc23)c1F` [Compound P-0275, 3-[3-[[ethyl(methyl)sulfamoyl]amino]-2,6-difluoro-benzoyl]-5-[2-(4-hydroxy-1-piperidyl)pyrimidin-5-yl]-1H-pyrrolo[2,3-b]pyridine], the half-maximal inhibitory concentration (IC50) is below 1 µM in experiment [1] and below 0.1 µM in experiment [2].

Regarding `CCN(C)S(=O)(=O)Nc1ccc(F)c(C(=O)c2c[nH]c3ncc(-c4cccc(C5(C#N)CC5)c4)cc23)c1F` [Compound P-0276, 5-[3-(1-cyanocyclopropyl)phenyl]-3-[3-[[ethyl(methyl)sulfamoyl]amino]-2,6-difluoro-benzoyl]-1H-pyrrolo[2,3-b]pyridine], the IC50 in experiment [1] is above 1 µM; in experiment [2], below 0.1 µM.

For `CCN(C)S(=O)(=O)Nc1ccc(F)c(C(=O)c2c[nH]c3ncc(-c4cnc(N5CCC5)nc4)cc23)c1F` [Compound P-0277, 5-[2-(azetidin-1-yl)pyrimidin-5-yl]-3-[3-[[ethyl(methyl)sulfamoyl]amino]-2,6-difluoro-benzoyl]-1H-pyrrolo[2,3-b]pyridine], the IC50 was below 1 µM in experiment [1] and above 0.1 µM in experiment [2].

Turning to `Nc1ncc(-c2cnc3[nH]cc(C(=O)c4c(F)ccc(NS(=O)(=O)N5CCCC5)c4F)c3c2)cn1` [Compound P-0279, N-[3-[5-(2-aminopyrimidin-5-yl)-1H-pyrrolo[2,3-b]pyridine-3-carbonyl]-2,4-difluoro-phenyl]pyrrolidine-1-sulfonamide], the IC50 in experiment [1] is below 1 µM; in experiment [2], below 0.1 µM.

Turning to `O=C(c1cccc(NS(=O)(=O)N2CCCC2)c1F)c1c[nH]c2ncc(-c3ccncc3)cc12` [Compound P-0281, N-[2-fluoro-3-[5-(4-pyridyl)-1H-pyrrolo[2,3-b]pyridine-3-carbonyl]phenyl]pyrrolidine-1-sulfonamide], the half-inhibitory concentration (IC50) was below 1 µM in experiment [1] and below 0.1 µM in experiment [2].
